The text below walks through data of PubChem BioAssay (NCI).

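1) Cells in 96-well plates. 2) Compound, 48 h, 5 concentrations. 3) Linear interpolation between surrounding doses. 4) Unreached endpoint = highest concentration. The concentration for 50% growth inhibition is given as GI50. TGI: concentration producing complete growth inhibition.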

Test systems include SNB-75 CNS; OVCAR-4 ovarian; NCI-H522 lung; NCI-H23 lung; OVCAR-8 ovarian; MDA-N; CAKI-1 renal; MDA-MB-231 breast.
Test in all cases: NCI tumour cell line growth inhibition, 48 h

For `c1cc(CSc2ncnc3nc[nH]c23)ccn1`, the TGI in the assay on SNB-75 CNS, in the assay on OVCAR-4 ovarian, with NCI-H522 lung, in the assay with NCI-H23 lung, in the assay with OVCAR-8 ovarian and in the assay with MDA-N was above 100 µM each time. The TGI in the assay with CAKI-1 renal and in the assay on MDA-MB-231 breast was above 100 µM throughout.
On to `CC(=O)Oc1cc(-c2oc3cc(OC(C)=O)c(C4OC(CO)C(O)C(O)C4O)c(OC(C)=O)c3c(=O)c2O)c(OC(C)=O)cc1O` (configuration not stated), for which the TGI with SNB-75 CNS, in the assay on OVCAR-4 ovarian, in the assay on NCI-H522 lung, in the assay on NCI-H23 lung, in the assay with OVCAR-8 ovarian and in the assay on MDA-N was above 100 µM in each case. The TGI in the assay with CAKI-1 renal and in the assay with MDA-MB-231 breast was above 100 µM in each case.
With `C/C(=N\O)c1cccc(Nc2c3ccccc3nc3occc23)c1`, the TGI in the assay with OVCAR-4 ovarian was 9.59 µM; in the assay on NCI-H522 lung, 4.83 µM; with NCI-H23 lung it was 49.4 µM; in the assay with OVCAR-8 ovarian, 83 µM; in the assay with MDA-N, above 100 µM; with CAKI-1 renal, 9.3 µM. The compound further registered a TGI in the assay with MDA-MB-231 breast above 100 µM.
Regarding `CC(C)c1c(O[Si](C(C)C)(C(C)C)C(C)C)cc2c(c1O)CC[C@H]1C(C)(C)CCC[C@]21C`, the TGI with SNB-75 CNS, in the assay with OVCAR-4 ovarian, in the assay with NCI-H522 lung, with NCI-H23 lung, with OVCAR-8 ovarian and with MDA-N was above 100 µM each time. Besides, the TGI with CAKI-1 renal and with MDA-MB-231 breast was above 100 µM each time.
`CN(/N=C/C=N/N(C)C1=NCCN1)C1=NCCN1`: the TGI in the assay on SNB-75 CNS, with OVCAR-4 ovarian, with NCI-H522 lung, in the assay with NCI-H23 lung, in the assay on OVCAR-8 ovarian and with MDA-N was above 100 µM throughout. Moreover, the TGI in the assay on CAKI-1 renal and in the assay on MDA-MB-231 breast was above 100 µM each time.
Consider `CN(C)NC1=NS(=O)(=O)c2cc3c(=O)n(C)[nH]c3cc2S1`, for which the TGI with SNB-75 CNS, in the assay with OVCAR-4 ovarian, with NCI-H522 lung, with NCI-H23 lung, in the assay with OVCAR-8 ovarian and in the assay on MDA-N was above 10 µM throughout. In the assay with CAKI-1 renal, this compound registered a TGI above 10 µM.
Regarding `S=C(S)NCCN1CCNCC1`, the TGI in the assay on SNB-75 CNS is above 100 µM; in the assay with OVCAR-4 ovarian, above 100 µM; in the assay on NCI-H522 lung, 32.7 µM; with NCI-H23 lung, above 100 µM; in the assay on OVCAR-8 ovarian, 95.3 µM; with MDA-N, above 100 µM. Moreover, the TGI with CAKI-1 renal and in the assay with MDA-MB-231 breast was above 100 µM in each case.
`O=C(CCCn1ccnc1[N+](=O)[O-])NCCn1cnc([N+](=O)[O-])n1`: the TGI with SNB-75 CNS, in the assay on OVCAR-4 ovarian, in the assay on NCI-H522 lung, in the assay with NCI-H23 lung, with OVCAR-8 ovarian and with MDA-N was above 100 µM each time. Moreover, in the assay with CAKI-1 renal, the TGI was above 100 µM.
With `CC(C)=CCc1cc(/C=C/C(=O)O)cc(CC=C(C)C)c1O`, the TGI with OVCAR-4 ovarian, with NCI-H522 lung, with NCI-H23 lung, in the assay on OVCAR-8 ovarian, with MDA-N and with CAKI-1 renal was above 100 µM throughout. Besides, the TGI in the assay with MDA-MB-231 breast is above 100 µM.
Turning to `COc1ccc(Nc2cc(=O)[nH]c(=O)[nH]2)cc1`, the TGI with SNB-75 CNS, in the assay with OVCAR-4 ovarian, with NCI-H23 lung, in the assay with OVCAR-8 ovarian, in the assay with MDA-N and in the assay with MDA-MB-231 breast was above 100 µM in each case.
As to `CCOC(=O)c1cc([N+](=O)[O-])c(Sc2ncnc3nc[nH]c23)c([N+](=O)[O-])c1`, the TGI came to 2.34 µM in the assay on NCI-H522 lung; 28.7 µM in the assay on NCI-H23 lung; 17.9 µM in the assay with OVCAR-8 ovarian; 15.1 µM in the assay on MDA-N; 12.7 µM with CAKI-1 renal; 19.5 µM in the assay on MDA-MB-231 breast.
For the compound `CC(C)C(/C=C/c1ccc(Cl)cc1)=N\NC(=O)N/N=C(/C=C/c1ccc(Cl)cc1)C(C)C`, the TGI in the assay with SNB-75 CNS is 39 µM; with OVCAR-4 ovarian, 36 µM; with NCI-H23 lung, 55.9 µM; in the assay with OVCAR-8 ovarian, 38 µM; in the assay on MDA-N, above 100 µM; with CAKI-1 renal, 35.6 µM. Also, the TGI with MDA-MB-231 breast was found to be 49.4 µM.
For `C[C@@H](c1ccccc1)N1CO[C@@]2(C#Cc3ccc4c(c3)OCO4)CCC[C@@H]12`, the TGI is 27.9 µM in the assay with SNB-75 CNS; 28.4 µM with OVCAR-4 ovarian; 28.8 µM in the assay on NCI-H23 lung; 27 µM in the assay on OVCAR-8 ovarian; 37.7 µM in the assay on MDA-N; 34.6 µM in the assay with CAKI-1 renal. For the same compound, in the assay with MDA-MB-231 breast, the TGI turned out to be 28.2 µM.
Take `CC1CC(=O)Nc2ccccc2N1C(=O)C1CC1` (configuration not stated): the TGI in the assay on OVCAR-4 ovarian, with NCI-H522 lung, in the assay with NCI-H23 lung, with OVCAR-8 ovarian, in the assay on MDA-N and with CAKI-1 renal was above 100 µM throughout. This compound also showed a TGI in the assay with MDA-MB-231 breast above 100 µM.
For `CCOc1cc2c(cc1O)C(=O)C[C@@H]1[C@@H]2CC[C@]2(C)[C@@H](O)CC[C@@H]12`, the TGI was above 100 µM in the assay with OVCAR-4 ovarian; 3.2 µM in the assay on NCI-H522 lung; 43.7 µM in the assay on NCI-H23 lung; 27.1 µM in the assay on OVCAR-8 ovarian; 0.106 µM in the assay on MDA-N; above 100 µM in the assay on CAKI-1 renal. The compound further returned a TGI in the assay with MDA-MB-231 breast of 61.8 µM.
For `O=C(CC(=O)N1N=C(N(c2ccccc2)c2ccccc2)CC1c1ccccc1)Nc1cccc(Cl)c1` (configuration not stated), the TGI in the assay with SNB-75 CNS, with OVCAR-4 ovarian, in the assay on NCI-H522 lung, in the assay on NCI-H23 lung, in the assay on OVCAR-8 ovarian and in the assay on CAKI-1 renal was above 100 µM each time. Besides, in the assay with MDA-MB-231 breast, the TGI is above 100 µM.
In the case of `COc1cc(N(CCCl)CCCl)ccc1/C=N\NC(=O)c1cccnc1`, the GI50 with SNB-75 CNS was 37.1 µM; in the assay on NCI-H522 lung, 21.8 µM; in the assay with NCI-H23 lung it was 26.7 µM; in the assay with OVCAR-8 ovarian, 26.5 µM; in the assay on CAKI-1 renal, 9.25 µM; in the assay on MDA-MB-231 breast it was 33.8 µM. For the same compound, the TGI in the assay with SNB-75 CNS is above 100 µM; in the assay on NCI-H522 lung it was 65.8 µM; with NCI-H23 lung it was above 100 µM; with OVCAR-8 ovarian, above 100 µM; with CAKI-1 renal, 59.2 µM; in the assay on MDA-MB-231 breast it was above 100 µM.
